Target: T1, TRPV1 (Homo sapiens, UniProt Q8NER1)
T1 construct: expressed in transfected cells; host or cells: HEK293T
Assay: Intermolecular BRET assay, TRPV1-Luc/YFP-CaM in HEK293T cells
Assay type: cell-based
Conditions: TRPV1-Luc/YFP-CaM
Excerpt: In order to generate the BRET constructs, super Yellow Fluorescent Protein 2 and Renilla Luciferase II were used to improve the brightness of the assay. They were referred as YFP and Luc for short in the rest of the manuscript. The cDNA of Luc and YFP were first cloned together using a three-piece ligation in the BamHI/XhoI site of pcDNA3.1(+) (Invitrogen, Carlsbad, Calif., USA), yielding two expression vectors pcDNA3.1 YFP-Luc where YFP was cloned in-fusion at the N-terminal of Luc, and pcDNA3.1 Luc-YFP where Luc was cloned in-fusion at the N-terminal of YFP. Both YFP and Luc were amplified by PCR from the pcDNA3-YFP-EPAC-Luc vector. Luc was cloned either at the N-terminal of YFP as a HindIII-EcoRI fragment (primers used: “Luc_HindIII_ATGN-term sense” and “Luc_no Stop_EcoRI_N-term antisense”) or at the COOH-terminal of YFP as an EcoRI-XhoI fragment (primer used: “Luc_EcoRI_ATG_C-term sense” and “Luc_XhoI_Stop_C-term antisense”). In parallel, YFP was cloned either at the N-terminal of Luc as a HindIII-EcoRI fragment (primers used: “YFP_HindIII_ATG_N-term sense” and “YFP_no Stop_EcoRI_N-term antisense”) or at the COOH-terminal of Luc as a EcoRI-XhoI fragment (primer used: “YFP_EcoRI_ATG_C-term sense” and “YFP_XhoI_Stop_C-term antisense”). The sequence joining Luc and YFP sequence encoded […] (SEQ ID NO: 18) as a linker, and contained an AgeI restriction site. The YFP-hTRPV1-Luc expression vector was obtained by subcloning the human TRPV1 cDNA from the pDONR201-hTRPV1 vector (Harvard Medical School PlasmID Repository, clone HsCD00081472) as an EcoRI PCR fragment in the EcoRI site of the vector pcDNA3.1 YFP-Luc (primer used: “hTRPV1_EcoRI_Fus_Sense” and “hTRPV1_EcoRI_Fus_antisense”). The hTRPV1-Luc expression vector was obtained by subcloning the cDNA of hTRPV1 as a HindIII-EcoRI fragment in place of the YFP in the HindIII-EcoRI site of the pcDNA3.1 YFP-Luc vector (primer used: “hTRPV1_HindIII_ATG_Sense” and “hTRPV1_EcoRI_Fus_antisense”). The Luc-hTRPV3 expression vector was obtained by subcloning the cDNA of hTRPV3 (Harvard Medical School PlasmID Repository, clone HsCD00341603) as a AgeI-XhoI fragment in place of the YFP in the AgeI-XhoI sites of the pcDNA3.1 Luc-YFP vector (primer used: “hTRPV3_AgeI_ATG_Sense” and “hTRPV3_Stop_XhoI_antisense”). The hTRPV4-Luc expression vector was obtained by subcloning the cDNA of hTRPV4 as a BamHI-AgeI fragment in place of the YFP in the BamHI-AgeI site of the pcDNA3.1 YFP-Luc vector (primer used: “hTRPV4_BamHI_ATG_Sense” and hTRPV4_AgeI_Fus_antisense”). In each case, the sequence joining the cDNA of interest and either Luc or YFP sequence encoded […] (SEQ ID NO: 18) as a linker.
The cDNA of mAmetrine (Plasmid #54660) and LssmOrange (Plasmid #37130) were obtained from AddGene plasmid repository. The cDNA of aquamarine, mAmetrine and LssmOrange were all subcloned as a HindIII-EcoRI fragment in place of the YFP in the HindIII-EcoRI site of the pcDNA3.1 YFP-Luc vector (primer used: “YFP_HindIII_ATG_N-term sense” and “YFP_no Stop_EcoRI_N-term antisense”) to yield pcDNA3.1 FP-Luc expression vectors (“FP” being any fluorescent protein between aquamarine, mAmetrine and LssmOrange). […] A similar strategy was used to obtain the FP-CaM expression vector using the pcDNA3.1 FP-Luc expression vector instead of the pcDNA3.1 YFP-Luc.
HEK293T cells were maintained in Dulbecco's modified Eagle's medium-high Glucose (DMEM) (D6429, Sigma) supplemented with 10% fetal bovine serum, 100 units mL-1 penicillin and streptomycin. Twenty-four hours before transfection, cells were seeded at a density of 500,000 cells in 6-well dishes. Transient transfections were performed using polyethylenimine (PEI, linear, Mr 25,000; catalogue number 23966 Polysciences, Inc., Warrington, Pa., USA) with a PEI:DNA ratio of 4:1. Usually, 0.1-0.25 μg of the donor constructions and 1.75-1.9 μg of the acceptors constructions were transfected for the BRET measurement.

T1 sequence (Q8NER1 whole entry): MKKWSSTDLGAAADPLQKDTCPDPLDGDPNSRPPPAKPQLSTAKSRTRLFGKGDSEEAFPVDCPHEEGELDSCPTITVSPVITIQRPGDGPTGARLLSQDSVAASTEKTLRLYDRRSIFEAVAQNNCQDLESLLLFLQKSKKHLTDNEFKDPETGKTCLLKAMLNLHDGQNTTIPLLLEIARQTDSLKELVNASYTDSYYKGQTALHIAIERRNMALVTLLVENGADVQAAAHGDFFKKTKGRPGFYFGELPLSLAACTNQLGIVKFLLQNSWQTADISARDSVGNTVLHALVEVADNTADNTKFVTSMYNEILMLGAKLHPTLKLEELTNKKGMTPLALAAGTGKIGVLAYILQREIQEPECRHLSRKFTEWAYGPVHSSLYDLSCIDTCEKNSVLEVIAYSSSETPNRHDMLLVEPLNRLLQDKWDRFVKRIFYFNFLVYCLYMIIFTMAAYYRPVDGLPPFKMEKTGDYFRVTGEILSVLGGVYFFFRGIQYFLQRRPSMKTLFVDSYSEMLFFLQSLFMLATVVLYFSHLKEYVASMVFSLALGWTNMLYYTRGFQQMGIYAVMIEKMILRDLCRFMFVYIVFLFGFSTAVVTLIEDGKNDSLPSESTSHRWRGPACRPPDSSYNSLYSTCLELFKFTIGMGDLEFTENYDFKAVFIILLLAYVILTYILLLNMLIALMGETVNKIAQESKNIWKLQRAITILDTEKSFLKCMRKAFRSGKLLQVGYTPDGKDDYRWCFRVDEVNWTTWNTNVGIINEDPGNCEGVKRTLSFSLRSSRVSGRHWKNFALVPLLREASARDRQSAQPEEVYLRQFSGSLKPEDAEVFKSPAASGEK

Row | Effect on CAPS-induced BRET increase (intermolecular test) | Compound | Change of basal BRET signal
1 | abolished | CC(=O)OCOC(=O)CN(CC(=O)OCOC(C)=O)c1ccccc1OCCOc1ccccc1N(CC(=O)OCOC(C)=O)CC(=O)OCOC(C)=O [BAPTA-AM] | severely diminished
2 | – | C[C@H](CCC(=O)O)C[C@H](C)C[C@H](C)C(=O)/C=C(\O)[C@H](C)C[C@H](C)C/C=C/[C@@H](C)[C@@H](O)[C@@H](C)[C@@H](O)C[C@@H]1CC[C@@](C)([C@H]2CC[C@@](C)([C@@H](C)O)O2)O1 [ionomycin] | no effect

Reference: US20190353647A1, “NOVEL REAL-TIME MULTIPLEXED, MULTI-COLOR BIOLUMINESCENCE RESONANCE ENERGY TRANSFER ASSAY, APPARATUS, AND USES THEREOF” (Universite de Bordeaux, priority 2016, published 2019)
